Counter-ions that a name gives are not always drawn.
Tests used:
[1] = system: MCSP-positive cells; test: Ex vivo human skin organ culturing with HEI, MCSP staining; type: cell-based; conditions: 0.01% HEI, 5 days, abdominal skin
[2] = molecular target: T1, heparanase (Homo sapiens, UniProt Q9Y251); test: Heparanase assay on heparan sulfate immobilization plate with A431 cell lysate; type: biochemical; conditions: 0.0005%, 0.005% or 0.05% HEI, 3 hours at 37° C., FIG. 8
T1 construct: endogenous in cells; host or cells: A431 cell lysate
T1 sequence (Q9Y251 158-543 limits assumed): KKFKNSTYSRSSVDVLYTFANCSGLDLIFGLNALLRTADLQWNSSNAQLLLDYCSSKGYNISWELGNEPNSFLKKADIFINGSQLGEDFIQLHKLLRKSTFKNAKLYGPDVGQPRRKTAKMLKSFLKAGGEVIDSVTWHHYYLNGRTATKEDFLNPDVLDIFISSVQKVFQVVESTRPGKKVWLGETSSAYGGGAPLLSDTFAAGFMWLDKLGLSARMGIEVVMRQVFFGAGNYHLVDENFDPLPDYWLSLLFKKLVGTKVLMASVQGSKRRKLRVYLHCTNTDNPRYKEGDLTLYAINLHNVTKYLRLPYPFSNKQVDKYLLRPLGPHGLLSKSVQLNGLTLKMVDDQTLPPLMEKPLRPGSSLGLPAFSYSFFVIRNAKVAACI
T1 sequence (Q9Y251 36-109 limits assumed): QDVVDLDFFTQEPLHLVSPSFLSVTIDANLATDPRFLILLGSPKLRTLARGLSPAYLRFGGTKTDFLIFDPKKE
Method: A heparanase assay was carried out using a heparan sulfate immobilization plate, as described in Behzad F, et al., Analytical Biochemistry, 320, pp. 207-213, 2003. Specifically, heparan sulfate (Seikagaku, Tokyo, Japan) was reacted with photobiotin to prepare biotinylated heparan sulfate. The biotinylated heparan sulfate was fixed onto a carbohydrate-binding surface plate (Coastar, Tokyo, Japan). A431 cell lysate (50 μg/ml) and 0% HEI, 0.0005% HEI, 0.005% HEI or 0.05% HEI were added onto the biotinylated heparan sulfate immobilized plate, incubated for 3 hours at 37° C., and then rinsed with PBS-T. Next, peroxidase-avidin (Vector Laboratories, Inc. CA, USA) was incubated at 37° C. for 1 hour. A 3,3′,5,5′-tetramethylbenzidine (TMB) solution (Bio-Rad, Tokyo, Japan) was added, and the plate was further incubated at room temperature for 30 minutes. The absorbance at 450 nm was measured to determine the heparanase inhibiting effect.

[3] = molecular target: T2, recombinant human MMP-9 (Homo sapiens, UniProt P14780); test: MMP-9 colorimetric drug discovery kit assay; type: biochemical; conditions: 0.0001%, 0.001% and 0.01% HEI, FIG. 9
T2 construct: purchased Enzo Life Sciences Inc
Method: An MMP9 assay was carried out using a Matrix Metalloproteinase-9 (MMP-9) colorimetric drug discovery kit (Enzo Life Sciences Inc.). Specifically, HEI was added to a recombinant human MMP-9 enzyme solution to 0.0001%, 0.001% and 0.01% concentration. After mixing with chromogenic MMP-9 substrate, the absorbance at 412 nm was measured every other minute. The MMP-9 inhibition rate (%) for HEI was calculated from the slope of the absorbance (OD/min).

[4] = system: filaggrin; test: Ex vivo human skin organ culturing with HEI, filaggrin staining; type: cell-based; conditions: 0.01% HEI, 5 days
Method: (§1) The taken samples were cultured for 5 days in culture medium containing 0.01% HEI. […] The excess moisture adhering to the cultured skin sample was wiped off with a Kimtowel, and after allowing it to stand for 5 minutes, a Vapometer was used for TEWL measurement, and a Corneometer was used to measure the stratum corneum moisture content.
DAPI was also used for nuclear staining.

[5] = system: human skin; test: Ex vivo human skin organ culturing with HEI, TEWL and stratum corneum moisture; type: cell-based; conditions: 0.01% HEI, 5 days
Method: as §1

[6] = In vivo human application test of HEI solution on the face, TEWL and stratum corneum moisture; conditions: 1.5% HEI solution on one side of the face, twice a day for 4 weeks, water on other side
Method: Next, 20 males from 20 to 50 years of age were asked to apply a 1.5% HEI solution on one side of the face and water on the other side of the face, twice a day for 4 weeks. Before application, 2 weeks after application and 4 weeks after application, the TEWL was measured using a Vapometer, and a Corneometer was used to measure the stratum corneum moisture content.

[7] = system: laminin 511; test: Ex vivo human skin organ culturing with HEI, laminin 511 staining; conditions: 0.01% HEI, 5 days, abdominal skin
[8] = system: MCSP-positive cells; test: Tissue culture of human skin with MMP and heparanase inhibiting agents, MCSP staining; type: cell-based; conditions: CGS27023A 10 μM and BIPBIPU 10 μM added together, 4 days of culturing, abdominal skin
From the text: DAPI was also used for nuclear staining. […] DAPI was also used for nuclear staining.

[9] = system: PDGF-BB; test: Membrane array of cytokines in epidermis protein extract of three-dimensional skin model; type: cell-based; conditions: CGS27023A 10^−5 M and BIPBIPU 10^−5 M added together, 2nd, 4th and 7th day, data not shown
From the text: The epidermis was collected from the skin model on the 2nd day, 4th day and 7th day of culturing, and RIPA buffer by Nacalai was used to prepare a protein extract. Using a membrane array kit (ab134002) by Abcam Co., the amounts of different cytokines in the protein extract were detected using a LAS-1000UVmini by Fujifilm and digitized with the included software, and a graph was drawn (data not shown). The cytokines whose amounts increased compared to the control were selected as candidate cytokines that promote type V collagen expression. Three cytokines including PDGF-BB were selected as candidate cytokines.

[10] = system: laminin 511; conditions: CGS27023A 10 μM and BIPBIPU 10 μM added together, 4 days of culturing, abdominal skin
Method: The taken samples were cultured for 4 days in culture medium containing the MMP9 inhibiting agent CGS270234 (10 μM) and the heparanase inhibiting agent BIPBIU (10 μM).

[11] = system: gene COL5A1 for type V collagen; test: COL5A1 expression in human fibroblasts after addition of recombinant cytokine; type: cell-based; conditions: normal human fibroblasts, 24 hours
Method: The selected recombinant cytokine proteins were purchased from R&D Co. Normal human fibroblasts from skin harvested from 14-month-old children were cultured for 24 hours in 10% FBS-added DMEM, and the medium in the cultured product was exchanged with another medium added to DMEM medium containing 25% serum for a prescribed concentration of each cytokine, after which culturing was continued for 24 hours. After culturing, the cells were collected and the mRNA was extracted with Trizol. The cDNA was rapidly prepared, and the aforementioned primers were used for real-time PCR to evaluate the gene expression levels of the gene COL5A1 for type V collagen (FIG. 15).

T2 sequence (P14780 107-444 limits assumed): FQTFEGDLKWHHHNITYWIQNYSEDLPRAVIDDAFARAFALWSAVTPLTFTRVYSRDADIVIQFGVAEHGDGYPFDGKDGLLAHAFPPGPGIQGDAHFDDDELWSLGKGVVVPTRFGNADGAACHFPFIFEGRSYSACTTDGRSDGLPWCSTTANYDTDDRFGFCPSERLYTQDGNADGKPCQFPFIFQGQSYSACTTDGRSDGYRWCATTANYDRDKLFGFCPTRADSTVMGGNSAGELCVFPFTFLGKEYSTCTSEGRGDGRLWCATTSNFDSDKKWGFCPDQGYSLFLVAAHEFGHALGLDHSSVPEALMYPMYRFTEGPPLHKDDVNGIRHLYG

Molecule: O=C1NCCN1CCO [HEI, 1-(2-Hydroxyethyl)-2-imidazolidinone]
- MCSP-positive cell count on the basal membrane after culturing [1]: maintained
- heparanase inhibiting effect [2]: inhibit heparanase activity in a dose-dependent manner
- MMP9 inhibition [3]: inhibit MMP9 activity in a dose-dependent manner
- filaggrin protein expression [4]: tendency for increase
- stratum corneum moisture content ([5]; Corneometer): increased
- TEWL ([5]; Vapometer): decreased
- TEWL [6]: decreased
- stratum corneum moisture content [6]: increased
- amount of laminin 511 after culturing [7]: maintained

Molecule: COc1ccc(S(=O)(=O)N(Cc2cccnc2)[C@@H](C(=O)NO)C(C)C)cc1 [CGS27023A, N-hydroxy-2(R)-[[(4-methoxy-phenyl)sulfonyl](3-picolyl)amino]-3-methylbutanamide hydrochloride]
- MCSP-positive cells after tissue culture [8]: maintenance or augmentation of MCSP
- amount of PDGF-BB in epidermis protein extract compared to the control [9]: increased
- laminin 511 in the basal membrane after tissue culture [10]: augmentation of laminin 511

Molecule: O=C(Nc1ccc(-c2nc3ccccc3[nH]2)cc1)Nc1ccc(-c2nc3ccccc3[nH]2)cc1 [BIPBIPU, 1-[4-(1H-benzoimidazol-2-yl)phenyl]-3-[4-(1H-benzoimidazol-2-yl)phenyl]urea]
- MCSP-positive cells after tissue culture [8]: maintenance or augmentation of MCSP
- amount of PDGF-BB in epidermis protein extract compared to the control [9]: increased

B1: PDGF-BB: recombinant cytokine protein purchased from R&D Co. (protein, UniProt P01127 82-190, looked up)
Platelet-derived growth …: SLGSLTIAEPAMIAECKTRTEVFEISRRLIDRTNANFLVWPPCVEVQRCSGCCNNRNVQCRPTQVQLRPVQVRKIEIVRKKPIFKKATVTLEDHLACKCETVAAARPVT
- type V collagen production (COL5A1 gene expression) [11]: significantly increased
